Results as given in patent US20250064990A1, “METHODS OF SCREENING FOR VMAT2 INHIBITORS” (Neurocrine Biosciences, Inc., priority 2021, published 2025).
Converted amounts (≈) assume the structure as drawn. Like-named read-outs stand apart in the source and are kept apart here.

Molecular target: VMAT2 (Homo sapiens, UniProt Q05940)
Test: VMAT2 target occupancy of single oral doses of NBI-750142 in healthy adult male subjects, [^18F]AV-133 PET
Assay type: in vivo
Parameters: from tissue; host or cells: brain (caudate, putamen, midbrain) of living healthy adult male subjects
Settings: for [^18F]AV-133 BPND T2 / NBI-750142 T2 Occ: T2 (18 h post dose); for NBI-750142 T1 Occ / [^18F]AV-133 BPND T1: T1 ([…] post dose); for EC50: read-out: EC50 (NBI-750142 plasma concentration vs VMAT2 striatal occupancy) (converted)
Method: This study was conducted to evaluate the brain penetration and target engagement of VMAT2 after single oral doses of NBI-750142 in healthy subjects. This PET study assessed the engagement of NBI-750142 with VMAT2 in vivo at two time-points after dosing. A sequential-cohort design allowed for the safety, target-occupancy, and available pharmacokinetic (PK) data from each prior cohort to be evaluated before selection of the dose level for the next cohort. A range of NBI-750142 doses (max. 200 mg) were studied to explore the relationship between NBI-750142 plasma concentrations and engagement of VMAT2 in selected brain regions.
This was a Phase 1 single-center, open-label, single-dose, target occupancy study of NBI-750142 in up to 12 healthy male subjects using [^18F]AV-133 PET imaging. […] A total of 12 subjects completed the study. Subjects enrolled in the study were required to report to the clinical research site for 4 separate occasions, detailed below.
Two subjects were initially enrolled in each dose cohort. Each subject received one brain structural magnetic resonance imaging (MRI) scan during screening and up to 3 [^18F]AV-133 PET scans (1 baseline and up to 2 follow-up scans after receiving a single dose of NBI-750142). Subjects enrolled in the first cohort received a single dose of 100 mg of NBI-750142 orally on Day 1. PET scans occurred on Day 1 at approximately 1.5 hours post NBI-750142 dose and on Day 2 at approximately 18 hours post NBI-750142 dose. Subjects were then discharged from the study center after all Day 3 procedures and assessments were completed.
Subjects were administered a single dose of [^18F]AV-133 intravenously over 3 minutes using an infusion pump (approximately 3.33 mL per minute) through a venous catheter followed by a 10 mL saline flush. Dynamic PET imaging of the brain was acquired over 120 min following radiotracer injection on a Siemens Biograph 6 PET/CT camera according to the following protocol: • CT scan of the head • [^18F]AV-133 injection (T=0 min) • Emission scan: 6×30 sec, 4×1 min, 4×2 min, 21×5 min (0-120 min)
Reconstructed PET imaging data volumes were transferred to the image processing PMOD software package (PMOD Technologies, Zurich, Switzerland) where the images were motion and decay corrected, realigned onto the subject MRI and subsequently normalized into the standard MNI (Montreal Neurological Institute) space where volumes of interest (VOIs) were defined from a template (see e.g., Hammers et al, Adult brain maximum probability map (“Hammersmith atlas”; n30r83) in MNI space. 2008). The subject MRI was segmented into grey matter, white matter, and CSF maps. Average activity concentration (kBq/cc) within each VOI, constrained to grey matter voxels for cortical regions, were determined and time activity curves (TACs) were generated. TACs were extracted from the following VOIs: caudate and putamen (striatum), midbrain, cerebellar and occipital cortices. TACs and were expressed in standard uptake value (SUV) units (g/mL) by normalizing with the weight of the subject and the injected dose. The occipital cortex was used as a reference region to normalize activity in target regions to generate SUVr images. For visualization, standard uptake value ratio (SUVr) images were computed between 60-120 min. Non-displaceable binding potential (BPND), the primary outcome measure, was estimated with noninvasive Logan graphical analysis (NI-LGA, t*=20 min) in caudate, putamen and midbrain using the occipital cortex as the reference region. Percent measured occupancy (OM) of NBI-750142 (drug) by region was computed according to the Equation 3-1 at each of the post-dose timepoints, T1 (1.5 h post dose) and T2 (18 h post dose).
Post-hoc exploratory analysis applied an Upregulation model (Equation 3-3), in order to account for the apparent ‘negative occupancy’ values observed at T2 (BPND values at T2 were unexpectedly higher than corresponding BPND values at baseline). […]

[1] = Cohort 4, 60 mg, Subject 1, Midbrain
[2] = Cohort 4, 60 mg, Subject 1, Putamen
[3] = Cohort 4, 60 mg, Subject 2, Caudate
[4] = Cohort 4, 60 mg, Subject 2, Midbrain
[5] = Cohort 4, 60 mg, Subject 2, Putamen
[6] = Cohort 5A, 10 mg, Subject 1, Caudate (2nd line so labelled)
[7] = Cohort 5A, 10 mg, Subject 1, Caudate
[8] = Cohort 5A, 10 mg, Subject 1, Midbrain
[9] = Cohort 5A, 10 mg, Subject 2, Caudate (2nd line so labelled)
[10] = Cohort 5A, 10 mg, Subject 2, Caudate
[11] = Cohort 5A, 10 mg, Subject 2, Midbrain
[12] = Cohort 5B, 10 mg, Subject 3, Caudate
[13] = Cohort 5B, 10 mg, Subject 3, Midbrain
[14] = Cohort 5B, 10 mg, Subject 3, Putamen
[15] = Cohort 5B, 10 mg, Subject 4, Caudate
[16] = Cohort 5B, 10 mg, Subject 4, Midbrain
[17] = Cohort 5B, 10 mg, Subject 4, Putamen
[18] = Upregulation model, post hoc exploratory, both T1 and T2 data
[19] = average of caudate and putamen, 100 mg

Chain of VMAT2 (Q05940 whole entry): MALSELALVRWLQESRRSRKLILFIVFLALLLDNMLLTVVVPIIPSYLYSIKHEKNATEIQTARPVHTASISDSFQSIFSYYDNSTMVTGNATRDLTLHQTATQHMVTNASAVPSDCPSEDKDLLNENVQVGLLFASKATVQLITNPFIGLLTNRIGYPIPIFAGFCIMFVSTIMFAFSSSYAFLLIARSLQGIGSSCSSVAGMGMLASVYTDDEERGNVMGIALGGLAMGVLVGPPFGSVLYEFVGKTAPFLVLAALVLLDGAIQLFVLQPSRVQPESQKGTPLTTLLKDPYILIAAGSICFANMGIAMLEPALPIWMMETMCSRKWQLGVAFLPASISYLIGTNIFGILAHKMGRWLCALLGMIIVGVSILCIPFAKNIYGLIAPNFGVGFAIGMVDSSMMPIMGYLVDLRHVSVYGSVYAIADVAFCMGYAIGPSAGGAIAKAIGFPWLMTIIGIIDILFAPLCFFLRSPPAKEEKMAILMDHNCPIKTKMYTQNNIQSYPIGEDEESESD

`COc1cc2c(cc1OC)[C@H]1CN(C)[C@H](CC(C)(C)C)CN1CC2` [NBI-750142] was tested, and the “[^18F]AV-133 BPND T2” value (Cohort 4, 60 mg, Subject 1, Caudate) was 1.69, the “NBI-750142 T1 Occ” value [1] was 55% and the “[^18F]AV-133 BPND T1” value [1] was 0.20. For the same compound, the “NBI-750142 T2 Occ” value [1] was −1%, the “[^18F]AV-133 BPND T2” value [1] was 0.44 and the “NBI-750142 T1 Occ” value [2] was 39%. The “[^18F]AV-133 BPND T1” value [2] was 1.10, the “NBI-750142 T2 Occ” value [2] was −12% and the “[^18F]AV-133 BPND T2” value [2] was 2.01. The “NBI-750142 T1 Occ” value [3] was 11%, the “[^18F]AV-133 BPND T1” value [3] was 1.26 and the “NBI-750142 T2 Occ” value [3] was −13%. For the same compound, the “[^18F]AV-133 BPND T2” value [3] was 1.61, the “NBI-750142 T1 Occ” value [4] was 27% and the “[^18F]AV-133 BPND T1” value [4] was 0.28. For the same compound, the “NBI-750142 T2 Occ” value [4] was −12%, the “[^18F]AV-133 BPND T2” value [4] was 0.42 and the “NBI-750142 T1 Occ” value [5] was 8%. The “[^18F]AV-133 BPND T1” value [5] was 1.73, the “NBI-750142 T2 Occ” value [5] was −12% and the “[^18F]AV-133 BPND T2” value [5] was 2.09. The “Occupancy at T2 in striatum” value (Cohort 4 at 60 mg, subject 1, 18 h post dose) was −10%, the “Occupancy at T2 in striatum” value (Cohort 4 at 60 mg, subject 2, 18 h post dose) was −12% and the “Occupancy at T2 in striatum” value (Cohort 5A at 10 mg, subject 1, 18 h post dose) was −3%. The “Occupancy at T2 in striatum” value (Cohort 5A at 10 mg, subject 2, 18 h post dose) was −4%, the “NBI-750142 T1 Occ” value [6] was 26% and the “[^18F]AV-133 BPND T1” value [6] was 1.76. For the same compound, the “NBI-750142 T2 Occ” value [6] was −4%, the “[^18F]AV-133 BPND T2” value [6] was 2.48 and the “NBI-750142 T1 Occ” value [7] was 27%. The “[^18F]AV-133 BPND T1” value [7] was 1.14, the “NBI-750142 T2 Occ” value [7] was −2% and the “[^18F]AV-133 BPND T2” value [7] was 1.58. For the same compound, the “NBI-750142 T1 Occ” value [8] was 41%, the “[^18F]AV-133 BPND T1” value [8] was 0.31 and the “NBI-750142 T2 Occ” value [8] was 1%. For the same compound, the “[^18F]AV-133 BPND T2” value [8] was 0.52, the “NBI-750142 T1 Occ” value [9] was 9% and the “[^18F]AV-133 BPND T1” value [9] was 2.88. The “NBI-750142 T2 Occ” value [9] was −6%, the “[^18F]AV-133 BPND T2” value [9] was 3.34 and the “NBI-750142 T1 Occ” value [10] was 11%. The “[^18F]AV-133 BPND T1” value [10] was 1.98, the “NBI-750142 T2 Occ” value [10] was −3% and the “[^18F]AV-133 BPND T2” value [10] was 2.29. For the same compound, the “NBI-750142 T1 Occ” value [11] was 20%, the “[^18F]AV-133 BPND T1” value [11] was 0.43 and the “NBI-750142 T2 Occ” value [11] was −19%. The “[^18F]AV-133 BPND T2” value [11] was 0.65, the “Occupancy at T2 in striatum” value (Cohort 5B at 10 mg, subject 3, 18 h post dose) was −14% and the “Occupancy at T2 in striatum” value (Cohort 5B at 10 mg, subject 4, 18 h post dose) was 5%. The “NBI-750142 T1 Occ” value [12] was −2%, the “[^18F]AV-133 BPND T1” value [12] was 2.51 and the “NBI-750142 T2 Occ” value [12] was −14%. For the same compound, the “[^18F]AV-133 BPND T2” value [12] was 2.81, the “NBI-750142 T1 Occ” value [13] was 19% and the “[^18F]AV-133 BPND T1” value [13] was 0.40. The “NBI-750142 T2 Occ” value [13] was −14%, the “[^18F]AV-133 BPND T2” value [13] was 0.56 and the “NBI-750142 T1 Occ” value [14] was −2%. For the same compound, the “[^18F]AV-133 BPND T1” value [14] was 2.90, the “NBI-750142 T2 Occ” value [14] was −14% and the “[^18F]AV-133 BPND T2” value [14] was 3.25. For the same compound, the “NBI-750142 T1 Occ” value [15] was −4%, the “[^18F]AV-133 BPND T1” value [15] was 2.35 and the “NBI-750142 T2 Occ” value [15] was 4%. The “[^18F]AV-133 BPND T2” value [15] was 2.16, the “NBI-750142 T1 Occ” value [16] was 0% and the “[^18F]AV-133 BPND T1” value [16] was 0.52. The “NBI-750142 T2 Occ” value [16] was −2%, the “[^18F]AV-133 BPND T2” value [16] was 0.53 and the “NBI-750142 T1 Occ” value [17] was −3%. The “[^18F]AV-133 BPND T1” value [17] was 3.03, the “NBI-750142 T2 Occ” value [17] was 6% and the “[^18F]AV-133 BPND T2” value [17] was 2.75. The EC50 (Emax model, T1 occupancy values alone) was 76.7 nM, the “EC50 (NBI-750142 plasma concentration vs VMAT2 striatal occupancy)” value (Emax model, both T1 and T2 occupancy values) was 0.0352 µg/mL (≈ 0.106 µM) and the “upregulation factor (URF)” value (Upregulation model, both T1 and T2 data) was 2.76. For the same compound, the “EC50 (NBI-750142 plasma concentration vs VMAT2 striatal occupancy)” value [18] was 0.0063 µg/mL (≈ 0.0189 µM), the EC50 [18] was 19.5 nM and the “[^18F]AV-133 striatal uptake at T2” value (across all cohorts) was “appeared to return to, or slightly exceed, baseline levels”. The “Occupancy in the striatum at T1, lower end of range” value (average of caudate and putamen, 10 mg) was −4%, the “Occupancy in the striatum at T1, upper end of range” value [19] was 76% and the “Occupancy in the striatum at T2, upper end of range” value [19] was 14%. The “Occupancy in the striatum at T2, lower end of range” value (average of caudate and putamen, 200 mg) was −28%.
